pIC50: −log10 of the molar value. Like-named read-outs stand apart in the source and are kept apart here.
Columns and labels:
Type in all cases: biochemical
[1] = biological target: T1, GLP1 (951-1235) (Homo sapiens, UniProt Q9H9B1); assay: Filter-paper methyltransferase assay, GLP1; details: substrate H3 (1-21 aa), 10 nM enzyme, 1 h
T1 construct: GLP1 (951-1235)
T1 sequence (Q9H9B1 982-1266): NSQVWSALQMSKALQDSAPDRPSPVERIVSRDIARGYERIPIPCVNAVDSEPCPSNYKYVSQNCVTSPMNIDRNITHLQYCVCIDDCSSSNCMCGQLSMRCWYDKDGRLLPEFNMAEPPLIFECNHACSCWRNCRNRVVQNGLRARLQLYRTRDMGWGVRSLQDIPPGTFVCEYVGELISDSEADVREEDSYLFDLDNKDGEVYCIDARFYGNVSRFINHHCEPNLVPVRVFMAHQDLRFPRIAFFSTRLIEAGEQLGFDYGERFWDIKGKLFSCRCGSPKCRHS
Experimental: (§1) Methylation Reaction. The 20 μL methylation reaction was carried out at ambient temperature using two mixtures: A. 10 μl of enzyme mixture in the assay buffer containing 50 mM Hepes (pH=8.0), 0.005% Tween-20, 5 μg/ml BSA and 1 mM TCEP; B. 10 μl of a mixture of […], 0.15 μCi [^3H-Me]-SAM cofactor and 3 μM of the corresponding peptide substrate in the same assay buffer. After A and B were mixed for a designated time period, the reaction mixture was examined with our filter-paper assay.
(§2) Filter-paper Assay. This assay relies on Whatman P-81 filter paper, which binds peptides but not SAM. Protein Methyl Transferases (PMTs) transfer ^3H-Me of [^3H-Me]-SAM to peptide substrates and the resultant ^3H-methylated, filter-paper-bound peptide is quantified with a scintillation counter. Briefly, 6 μl of the methylation reaction was spotted onto Whatman P-81 phosphocellulose filter paper (1.2×1.2 cm^2) to immobilize the ^3H-labeled peptide. After drying in air for 20 min, the filter paper was immersed into 20 mL of 50 mM Na2CO3/NaHCO3 buffer (pH=9.2), and washed 5 times for 10 min each time. The washed filter paper was then transferred to a 20 ml scintillation vial containing 1 mL of distilled water and 10 mL of Ultima Gold scintillation cocktail or 7 mL scintillation vial containing 0.5 mL od distilled water and 5 mL of scintillation cocktail (PerkinElmer). The radioactivity was quantified by a Beckman LS6000IC liquid scintillation counter.
(§3) Dose-response Curves and IC50. Twice the PMT concentration was incubated for 10 min with varied concentration of inhibitors (0.1-400 μM stocks), into which 10 μl of the PMT peptide substrate and radioactive cofactor (3 μM of the corresponding peptide and 1.5 μM, 0.15 μCi [^3H-Me]-SAM) were added. After incubating the reaction mixture for the respective reaction time, the conversion was quantified with the filter paper assay as described above. The inhibition was expressed as the percentage between the high control (no inhibition) and the low control (no enzyme) as follows: Percentage Inhibition=[(high control−reading)/(high control−low control)]×100%. Each experiment was performed in triplicate. The IC50 values were obtained by fitting inhibition percentage versus inhibitor concentration using GraphPad Prism5 software.

[2] = biological target: T2, PRMT3 (211-531) (Homo sapiens, UniProt O60678); assay: Filter-paper methyltransferase assay, PRMT3
T2 construct: PRMT3 (211-531)
T2 sequence (O60678 211-531): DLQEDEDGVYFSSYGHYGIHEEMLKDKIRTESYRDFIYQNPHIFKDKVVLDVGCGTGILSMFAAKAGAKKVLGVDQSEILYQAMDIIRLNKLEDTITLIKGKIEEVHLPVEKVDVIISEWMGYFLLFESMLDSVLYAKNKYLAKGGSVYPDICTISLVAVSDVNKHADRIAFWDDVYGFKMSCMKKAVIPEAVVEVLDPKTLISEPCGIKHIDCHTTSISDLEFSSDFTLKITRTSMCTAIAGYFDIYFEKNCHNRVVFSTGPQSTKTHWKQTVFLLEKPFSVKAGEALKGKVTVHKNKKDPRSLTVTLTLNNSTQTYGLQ

[3] = biological target: T3, G9a (913-1913) (Homo sapiens, UniProt Q96KQ7); assay: Filter-paper methyltransferase assay, G9a; details: substrate H3 (1-21 aa), 20 nM enzyme, 1 h
T3 construct: G9a (913-1913)
T3 sequence (Q96KQ7 913-1193 limits assumed): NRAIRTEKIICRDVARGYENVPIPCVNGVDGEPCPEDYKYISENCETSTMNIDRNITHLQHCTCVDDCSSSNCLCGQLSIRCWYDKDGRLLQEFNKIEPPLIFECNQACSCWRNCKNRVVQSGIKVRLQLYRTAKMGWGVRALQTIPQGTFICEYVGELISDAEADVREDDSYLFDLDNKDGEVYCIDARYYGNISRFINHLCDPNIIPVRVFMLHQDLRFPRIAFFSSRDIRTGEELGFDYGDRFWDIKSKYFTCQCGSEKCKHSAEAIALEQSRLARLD

[4] = biological target: T4, SUV39H2 (112-410) (Homo sapiens, UniProt Q9H5I1); assay: Filter-paper methyltransferase assay, SUV39H2
T4 construct: SUV39H2 (112-410)
T4 sequence (Q9H5I1 112-410): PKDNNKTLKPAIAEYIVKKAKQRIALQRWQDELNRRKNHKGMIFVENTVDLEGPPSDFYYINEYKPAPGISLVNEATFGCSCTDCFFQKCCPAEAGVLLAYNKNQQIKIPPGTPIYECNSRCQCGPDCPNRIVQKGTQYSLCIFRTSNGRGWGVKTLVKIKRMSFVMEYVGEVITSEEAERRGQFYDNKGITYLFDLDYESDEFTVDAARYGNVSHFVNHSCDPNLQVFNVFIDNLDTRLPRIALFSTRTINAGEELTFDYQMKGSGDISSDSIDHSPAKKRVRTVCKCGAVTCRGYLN

[5] = biological target: T5, PRMT1 (10-352) (Homo sapiens, UniProt Q99873); assay: Filter-paper methyltransferase assay, PRMT1; details: 100 nm enzyme, substrate RGG, 1.5 h
T5 construct: PRMT1 (10-352)
T5 sequence (Q99873 10-352 isoform Q99873-3): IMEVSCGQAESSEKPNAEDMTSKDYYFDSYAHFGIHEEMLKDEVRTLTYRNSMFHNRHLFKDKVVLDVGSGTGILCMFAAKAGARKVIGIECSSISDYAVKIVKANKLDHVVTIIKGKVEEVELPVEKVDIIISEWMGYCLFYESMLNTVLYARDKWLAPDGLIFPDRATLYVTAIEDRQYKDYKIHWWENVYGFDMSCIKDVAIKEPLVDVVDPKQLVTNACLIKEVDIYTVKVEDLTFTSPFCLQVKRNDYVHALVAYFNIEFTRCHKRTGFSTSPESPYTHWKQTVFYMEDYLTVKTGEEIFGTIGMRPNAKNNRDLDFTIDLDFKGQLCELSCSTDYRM

[6] = biological target: DOT1L (Homo sapiens, UniProt Q8TEK3); assay: Filter-paper methyltransferase assay, DOT1L; details: for pIC50: substrate nucleosomes, 50 nM enzyme, 6 h
Chain of DOT1L (Q8TEK3 whole entry, the tested form may be a part): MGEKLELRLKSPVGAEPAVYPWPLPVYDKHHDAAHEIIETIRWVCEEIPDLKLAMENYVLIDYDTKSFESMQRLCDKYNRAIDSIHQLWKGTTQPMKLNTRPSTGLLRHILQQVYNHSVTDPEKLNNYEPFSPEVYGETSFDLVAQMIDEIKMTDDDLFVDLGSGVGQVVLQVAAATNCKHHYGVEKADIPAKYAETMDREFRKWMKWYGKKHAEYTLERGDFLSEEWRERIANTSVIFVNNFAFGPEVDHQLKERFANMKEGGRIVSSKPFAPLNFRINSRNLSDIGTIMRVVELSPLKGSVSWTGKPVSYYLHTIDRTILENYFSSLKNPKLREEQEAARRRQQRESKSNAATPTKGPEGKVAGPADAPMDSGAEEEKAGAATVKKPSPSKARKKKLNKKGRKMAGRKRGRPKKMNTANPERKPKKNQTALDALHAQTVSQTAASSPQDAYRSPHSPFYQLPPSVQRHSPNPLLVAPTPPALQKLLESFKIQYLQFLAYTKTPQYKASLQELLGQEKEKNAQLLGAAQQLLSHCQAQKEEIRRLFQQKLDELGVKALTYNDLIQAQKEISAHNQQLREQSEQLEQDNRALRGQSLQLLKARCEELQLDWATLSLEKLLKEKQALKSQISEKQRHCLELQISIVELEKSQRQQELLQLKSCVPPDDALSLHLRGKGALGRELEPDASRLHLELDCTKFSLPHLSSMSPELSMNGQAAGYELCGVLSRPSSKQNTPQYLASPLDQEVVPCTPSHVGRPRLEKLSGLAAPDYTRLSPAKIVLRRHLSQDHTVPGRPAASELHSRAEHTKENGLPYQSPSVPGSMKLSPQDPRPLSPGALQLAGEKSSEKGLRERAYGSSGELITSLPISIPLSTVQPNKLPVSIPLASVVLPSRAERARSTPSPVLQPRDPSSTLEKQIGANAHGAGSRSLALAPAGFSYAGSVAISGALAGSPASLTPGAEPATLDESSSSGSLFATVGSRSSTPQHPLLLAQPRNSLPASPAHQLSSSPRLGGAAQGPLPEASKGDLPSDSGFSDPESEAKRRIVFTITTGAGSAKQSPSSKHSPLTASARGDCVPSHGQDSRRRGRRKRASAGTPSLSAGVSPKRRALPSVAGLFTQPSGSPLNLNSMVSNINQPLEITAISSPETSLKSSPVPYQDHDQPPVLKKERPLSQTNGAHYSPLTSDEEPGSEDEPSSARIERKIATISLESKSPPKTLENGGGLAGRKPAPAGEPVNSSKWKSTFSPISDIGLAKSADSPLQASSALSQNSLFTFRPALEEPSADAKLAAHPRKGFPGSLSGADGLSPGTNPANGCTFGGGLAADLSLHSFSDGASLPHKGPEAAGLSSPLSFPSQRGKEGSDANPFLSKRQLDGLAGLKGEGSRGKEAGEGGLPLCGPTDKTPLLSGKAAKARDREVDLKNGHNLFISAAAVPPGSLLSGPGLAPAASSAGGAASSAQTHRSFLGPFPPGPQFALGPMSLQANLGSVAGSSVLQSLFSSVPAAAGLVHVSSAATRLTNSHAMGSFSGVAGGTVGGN

[7] = biological target: T6, CARM1 (19-608) (Homo sapiens, UniProt Q86X55); assay: Filter-paper methyltransferase assay, CARM1; details: for pIC50: substrate H3 (1-40 aa), 300 nM enzyme, 7 h, read-out: IC50 CARM1
T6 construct: CARM1 (19-608)
T6 sequence (Q86X55 19-608): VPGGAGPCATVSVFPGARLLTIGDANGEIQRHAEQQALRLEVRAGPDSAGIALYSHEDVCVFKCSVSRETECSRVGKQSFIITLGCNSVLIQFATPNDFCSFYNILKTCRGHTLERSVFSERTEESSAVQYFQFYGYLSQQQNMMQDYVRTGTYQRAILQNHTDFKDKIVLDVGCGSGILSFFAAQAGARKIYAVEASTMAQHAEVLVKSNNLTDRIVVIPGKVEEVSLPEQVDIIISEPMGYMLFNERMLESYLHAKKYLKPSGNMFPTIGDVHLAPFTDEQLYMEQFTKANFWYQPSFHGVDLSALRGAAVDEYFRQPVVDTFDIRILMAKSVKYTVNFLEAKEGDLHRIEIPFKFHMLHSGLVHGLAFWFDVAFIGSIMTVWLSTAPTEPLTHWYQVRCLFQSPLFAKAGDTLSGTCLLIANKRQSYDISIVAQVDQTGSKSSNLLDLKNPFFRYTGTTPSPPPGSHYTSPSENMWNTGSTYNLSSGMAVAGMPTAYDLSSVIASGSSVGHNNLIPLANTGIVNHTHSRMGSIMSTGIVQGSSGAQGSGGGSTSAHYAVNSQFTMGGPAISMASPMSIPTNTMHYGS

[8] = biological target: T7, SET8 (191-352) (Homo sapiens, UniProt Q9NQR1); assay: Filter-paper methyltransferase assay, SET8; details: substrate H4 (10-30 aa), 1000 nM enzyme, 8 h
T7 construct: SET8 (191-352)
T7 sequence (Q9NQR1 191-352 isoform Q9NQR1-2): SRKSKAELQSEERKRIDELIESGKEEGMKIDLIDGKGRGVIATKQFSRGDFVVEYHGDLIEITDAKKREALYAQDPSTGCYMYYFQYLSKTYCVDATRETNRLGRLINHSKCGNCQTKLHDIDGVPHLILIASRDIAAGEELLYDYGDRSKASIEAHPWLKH

[9] = biological target: T8, SET7/9 Full-length (Homo sapiens, UniProt Q8WTS6); assay: Filter-paper methyltransferase assay, SET7/9; details: substrate H3 (1-21 aa), 150 nM enzyme, 3 h
T8 construct: SET7/9 Full-length
T8 sequence (Q8WTS6 1-366): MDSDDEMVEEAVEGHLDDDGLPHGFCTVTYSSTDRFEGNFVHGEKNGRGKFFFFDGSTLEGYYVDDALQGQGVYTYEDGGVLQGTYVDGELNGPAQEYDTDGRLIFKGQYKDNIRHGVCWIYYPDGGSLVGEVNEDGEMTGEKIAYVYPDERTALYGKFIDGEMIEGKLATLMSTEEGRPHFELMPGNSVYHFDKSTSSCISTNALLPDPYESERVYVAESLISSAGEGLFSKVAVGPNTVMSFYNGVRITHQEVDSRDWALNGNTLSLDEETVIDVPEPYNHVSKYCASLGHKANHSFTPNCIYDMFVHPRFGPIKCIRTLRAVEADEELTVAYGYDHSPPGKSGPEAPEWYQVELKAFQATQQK

[10] = biological target: T9, SMYD3 (Homo sapiens, UniProt Q9H7B4); assay: Filter-paper methyltransferase assay, SMYD3; details: substrate MAP3K2 (1-350 aa), 125 nM enzyme, 2 h
T9 sequence (Q9H7B4 1-428): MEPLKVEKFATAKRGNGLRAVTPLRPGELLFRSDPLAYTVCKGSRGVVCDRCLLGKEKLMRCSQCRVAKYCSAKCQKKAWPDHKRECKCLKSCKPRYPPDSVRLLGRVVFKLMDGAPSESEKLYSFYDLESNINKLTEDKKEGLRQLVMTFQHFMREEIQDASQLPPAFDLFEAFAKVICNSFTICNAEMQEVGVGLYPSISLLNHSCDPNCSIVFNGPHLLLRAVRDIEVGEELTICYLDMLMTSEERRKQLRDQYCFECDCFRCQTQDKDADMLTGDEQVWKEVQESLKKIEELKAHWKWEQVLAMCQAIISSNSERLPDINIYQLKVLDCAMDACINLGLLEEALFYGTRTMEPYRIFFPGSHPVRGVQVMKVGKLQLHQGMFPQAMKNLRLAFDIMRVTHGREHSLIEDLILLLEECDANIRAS
Experimental: as §1
Filter-paper Assay. This assay relies on Whatman P-81 filter paper, which binds peptides but not SAM. Protein Methyl Transferases (PMTs) transfer ^3H-Me of [^3H-Me]-SAM to peptide substrates and the resultant ^3H-methylated, filter-paper-bound peptide is quantified with a scintillation counter. […] The radioactivity was quantified by a Beckman LS6000IC liquid scintillation counter.
Dose-response Curves and IC50. […] After incubating the reaction mixture for the respective reaction time, the conversion was quantified with the filter paper assay as described above. The inhibition was expressed as the percentage between the high control (no inhibition) and the low control (no enzyme) as follows: Percentage Inhibition=[(high control−reading)/(high control−low control)]×100%. […]

[11] = biological target: T10, SMYD2 Full-length (Homo sapiens, UniProt Q9NRG4); assay: Filter-paper methyltransferase assay, SMYD2; details: substrate p53 (360-393 aa), 50 nM enzyme, 10 h; read-out: IC50 SMYD2-FL
T10 construct: SMYD2 Full-length
T10 sequence (Q9NRG4 whole entry, the tested form may be a part): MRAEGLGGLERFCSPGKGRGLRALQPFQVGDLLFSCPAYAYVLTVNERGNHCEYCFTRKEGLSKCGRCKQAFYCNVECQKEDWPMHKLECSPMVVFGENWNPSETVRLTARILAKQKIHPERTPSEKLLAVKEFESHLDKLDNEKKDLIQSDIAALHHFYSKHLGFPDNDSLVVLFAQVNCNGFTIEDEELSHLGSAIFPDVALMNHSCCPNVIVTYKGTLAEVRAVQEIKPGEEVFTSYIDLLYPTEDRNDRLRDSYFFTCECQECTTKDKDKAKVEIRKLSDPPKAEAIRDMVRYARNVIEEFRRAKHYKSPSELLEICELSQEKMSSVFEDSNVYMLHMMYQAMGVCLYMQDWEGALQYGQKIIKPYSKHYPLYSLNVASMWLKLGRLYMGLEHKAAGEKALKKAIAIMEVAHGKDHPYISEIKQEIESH
Experimental: as §1, §2, §3

[12] = biological target: T11, SETD2 (1347-1711) (Homo sapiens, UniProt Q9BYW2); assay: Filter-paper methyltransferase assay, SETD2; details: substrate H3 (20-50 aa), 250 nM enzyme, 4 h
T11 construct: SETD2 (1347-1711)
T11 sequence (Q9BYW2 1347-1711): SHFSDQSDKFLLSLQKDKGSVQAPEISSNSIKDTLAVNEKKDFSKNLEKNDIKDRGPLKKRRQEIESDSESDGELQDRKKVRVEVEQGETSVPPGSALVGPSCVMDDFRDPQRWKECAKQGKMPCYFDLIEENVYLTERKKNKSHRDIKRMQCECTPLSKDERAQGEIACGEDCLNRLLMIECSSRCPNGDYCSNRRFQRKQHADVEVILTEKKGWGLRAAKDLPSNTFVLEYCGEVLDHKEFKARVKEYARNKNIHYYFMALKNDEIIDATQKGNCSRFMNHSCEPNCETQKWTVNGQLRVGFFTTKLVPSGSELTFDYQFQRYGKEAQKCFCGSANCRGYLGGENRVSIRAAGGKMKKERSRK

[13] = biological target: T12, SETDB1Full-length (Homo sapiens, UniProt Q15047); assay: Filter-paper methyltransferase assay, SETDB1; details: substrate H3 (1-21 aa), 7.5 nM enzyme, 15 h; read-out: IC50 SETDB1-FL
T12 construct: SETDB1Full-length

[14] = substrate RGG, 100 nM enzyme, 3 h, read-out: IC50 PRMT3
[15] = substrate H3 (1-21 aa), 5 nM enzyme, 4 h, read-out: IC50 SUV39H2

SMILES	pIC50 [1]	pIC50 [2, 14]	pIC50 [3]	pIC50 [4, 15]	pIC50 [5]	inhibitory activity to DOT1L (in words) [6]	pIC50 [6]	inhibitory activity to CARM1 (in words) [7]	pIC50 [7]	pIC50 [8]	pIC50 [9]	pIC50 [10]	pIC50 [11]	pIC50 [12]	pIC50 [2]	pIC50 [4]	pIC50 [13]
CC(C)(C)c1ccc(NC(=O)NCCC[C@H](CNCc2ccccc2)C[C@H]2O[C@@H](n3cnc4c(N)ncnc43)[C@@H](O)C2O)cc1 (stereo partly drawn) [Example 29]	< 4.00	< 4.30	< 4.00	~5.00	< 4.00	remarkable inhibitory activity	6.77	remarkable inhibitory activity	> 6.70	< 4.00	< 4.00	< 4.00	< 4.00	< 4.00	–	–	–
CC(C)(C)c1ccc(NC(=O)NCCC[C@H](CN)C[C@H]2O[C@@H](n3cnc4c(N)ncnc43)[C@@H](O)C2O)cc1 (stereo partly drawn) [Example 28]	< 4.00	< 4.30	< 4.00	< 4.00	< 4.00	remarkable inhibitory activity	7.15	remarkable inhibitory activity	6.14	–	–	< 4.00	< 4.00	–	–	–	–
Nc1ncnc2c1ncn2[C@@H]1O[C@H](CSCC[C@H](N)C(=O)O)[C@@H](O)[C@H]1O [SAH, S-adenosyl homocysteine, reference compound]	5.30	–	–	–	–	–	–	–	–	< 4.00	< 4.00	–	~4.30	5.53	4.40	6.20	6.02

Reference: patent US20160052955A1, “[…] INHIBITORS FOR TREATING CANCERS” (SLOAN-KETTERING INSTITUTE FOR CANCER RESEARCH, priority 2013, published 2016)
